# Assay results reported in patent US8299049B2, “Compositions comprising an extract of Tiarella polyphylla or compounds isolated therefrom for preventing and treating cancer diseases” (Korea Institute of Bioscience and Biotechnology, priority 2007, dated 2012).
# Tests used:
# Format in all cases: cell-based
# [1] = tested on: TM4SF5-expressing SNU449Tp cells; experiment: Inhibitory effect on growth of TM4SF5-expressing cell
# Description: (§1) After virus infection, pooled stable clones (control SNU449Cp and TM4SF5-expressing SNU449Tp cell clones) and single cell-driven stable clones (TM4SF5-expressing SNU449T16) were prepared by infecting SNU449 hepatocytes (Korean Cell Bank, Seoul, Korea) with retrovirus for empty pLNCX or pLNCX with TM4SF5. Parental and control cells (Cp) were maintained in RPMI-1640/10% FBS/0.25 μg/ml gentamycin (Calbiochem, San Diego, Calif.) without or with 200 μg/ml G418 (A.G. Scientific Inc., San Diego, Calif.), respectively, at 37° C. and 5% CO2. Cells endogenously expressing TM4SF5 or cells endogenously expressing no TM4SF5 (Korean Cell Bank) were maintained in either DMEM-H or RPMI-1640 media with 10% FBS (JBI Inc., Daegu, Korea).
# [2] = tested on: TM4SF5 null SNU449Cp cells; experiment: Inhibitory effect on cell growth, TM4SF5-null control cells; conditions: 20 μM, 3 days
# Description: as §1
# [3] = tested on: TM4SF5; experiment: Effect of TA treatment on TM4SF5 expression of P, Cp, Tp and T16 cells
# [4] = tested on: TM4SF5-null cells including Hek293 and COST fibroblast, MDA-MB-453 breast, SNU638 and SNU668 stomach, and SNU398 liver epithelial cells; experiment: Cell number of diverse cell lines without TM4SF5 after TA treatment; conditions: TA 5 or 20 μM
# Description: as §1
# (§2) Next, to confirm that tiarellic acid (TA) is specific to TM4SF5, cytotoxicity of tiarellic acid (TA) was examined using cells with endogenous TM4SF5 expression. RT-PCR was performed using a primer set described in the following Table 1 under the conditions including 30 cycles of 94° C. for 30 sec, 55° C. for 30 sec, and 72° C. for 30 sec. Diverse cell lines were treated with tiarellic acid (TA) at a concentration of 5 or 20 μM.
# [5] = tested on: cells with endogenous TM4SF5 expression; experiment: Cell number of cell lines with endogenous TM4SF5 expression after TA treatment; conditions: TA 5 or 20 μM
# Description: as §1, §2
# [6] = tested on: focal adhesion kinase (FAK), paxillin, p130Cas in TM4SF5-expressing SNU449T16 cells; experiment: Immunoblot of focal adhesion molecule expression and activation, SNU449T16
# Description: (§3) Whole cell lysates from cells under diverse experimental conditions were prepared, as described in the literature (Lee, S. Y. et al., Focal adhesion and actin organization by a cross-talk of TM4SF5 with integrin α2 are regulated by serum treatment, Exp Cell Res, 312, pp. 2983-99, 2006). For example, cells were subjected to electroporation (950 μF, 250 V) with a control GFP, wild-type focal adhesion kinase (FAK), paxillin, p130Cas cDNA. One day after electroporation, cells were treated with TA (20 μM) for the indicated periods. Cells cultured normally or treated with TA at different concentrations for the indicated periods were harvested using RIPA buffer. Control or tumor tissues from nude mice were frozen immediately after surgery using liquid N2. Tissues in the liquid N2 was homogenized using a mortar and pestle, and extracted using 0.1% SDS containing RIPA buffer. Standard Western blots of lysates were performed by using antibody against phospho-Y^397, Y^407, Y^577, Y^861, Y^925 FAK (BioSource International, Inc., Camarillo, Calif.), phospho-Y^416Src, c-Src, p15^INK4B, p16^INK4A (Santa Cruz Biotech., Santa Cruz, Calif.), FAK, p130Cas, paxillin, pY^118paxillin, active caspase-3 (BD Transduct. Lab., San Jose, Calif.), α-tubulin (Sigma, St Louis, Mo.), phopsho-S^473, or T^308Akt, Akt, phospho-Erk1/2, Erk1/2 (Cell Signaling Tech., Danvers, Mass.), and TM4SF5 (homemade).
# To examine which signaling molecule is affected by tiarellic acid (TA), the following procedure was performed, as described in the literature (Lee, S. Y. et al., Focal adhesion and actin organization by a cross-talk of TM4SF5 with integrin α2 are regulated by serum treatment, Exp Cell Res, 312, pp. 2983-99, 2006).
# The SNU449 cell lines were treated with tiarellic acid (TA) in a dose- (0, 1, 5, 20 μM) and time-dependent (0, 8, 16, 24, 36 hrs) manner.
# The SNU449Cp and SNU449T16 cell lines were treated with tiarellic acid (TA) at varying concentrations (0, 1, 5, 20 μM) for 24 hrs, and then immunoblot assay was performed.
# [7] = tested on: focal adhesion molecules in SNU449Cp cells expressing no TM4SF5; experiment: Immunoblot of focal adhesion molecule expression and activation, SNU449Cp
# Description: as §3, with “(homemade). […]” for “(homemade).”
# [8] = tested on: focal adhesion molecules in TM4SF5-expressing SNU449Tp cell line; experiment: Immunoblot of focal adhesion molecule expression and activation, SNU449Tp; conditions: FIG. 11
# Description: as §3, with “(homemade). […]” for “(homemade).”
# [9] = tested on: focal adhesion molecules in cells that express endogenous TM4SF5; experiment: Focal adhesion molecule activation in cells endogenously expressing TM4SF5; conditions: FIG. 12
# Description: as §3
# [10] = tested on: focal adhesion molecules in cells lacking TM4SF5; experiment: Focal adhesion molecule activation in TM4SF5-null cell lines; conditions: FIG. 12
# Description: as §3
# [11] = tested on: TM4SF5-expressing cells; experiment: Immunofluorescence of focal adhesions and actin, TM4SF5-expressing cells
# Description: Cells were treated with DMSO or 20 μM TA for 24 hrs. Then, the cells were plated on 10 μg/ml fibronectin-precoated coverslips and incubated for 2 hrs in the presence of DMSO or 20 μM TA. Subsequently, immunofluorescence staining was performed using pY^397 FAK, pY^118 paxillin, and actin, as described in the literature (Lee, S. Y. et al., Focal adhesion and actin organization by a cross-talk of TM4SF5 with integrin α2 are regulated by serum treatment, Exp Cell Res, 312, pp. 2983-99, 2006). Mounted samples were visualized by a fluorescent microscope (BX51, Olympus, Japan).
compound,measurement,setting,value
"C=C(C)C1CC[C@]2(C)CC[C@]3(C(=O)O)C(CCC4[C@@]5(C)CC[C@H](O)[C@@](C)(CO)C5CC[C@]43C)C12 (some centres unmarked) [tiarellic acid (TA), 3,23-dihydroxy-20(29)-lupen-27-oic acid]",number of TM4SF5-expressing cells,"[1]; FIG. 4, depending on concentration and time",decreased
same,inhibitory effect on cell growth,"[1]; SNU449Tp, 5 μM, 3 days",inhibitory effect was observed
same,cell density and cell shape,"[1]; SNU449Tp, 20 μM, 3 days",reduced cell density and round shaped cells were observed
same,inhibitory effect on the growth of TM4SF5-expressing cell,"[1]; TA 0, 0.1, 5, 20 μM",inhibitory effect
same,inhibitory effect on cell growth,[2],not observed
same,expression level of TM4SF5,[3],without affecting
same,proliferation of TM4SF5-null cells,[4],not affected
same,growth of cells with endogenous TM4SF5 expression,[5],growth suppression
same,"p130Cas phosphorylation and physical association among FAK, p130Cas, and paxillin","[6]; FIG. 10, cell line not stated",decreased
same,FAK and paxillin phosphorylation and p130Cas protein levels over time,"[6]; SNU449T16, 20 μM TA, 0, 8, 16, 24, 36 hrs",remarkably decreased in a time-dependent manner
same,FAK and paxillin phosphorylations and p130Cas protein levels,"[6]; SNU449T16, 20 μM TA, 24 hrs",reduced
same,pErk1/2,[7]; FIG. 11,slightly increased
same,FAK and paxillin phosphorylations and p130Cas protein levels,"[7]; TA up to 20 μM, 24 hrs",no effect
same,TM4SF5-dependent inhibitory effects on focal adhesion molecules,[8],inhibitory effects
same,pErk1/2,[8],slightly increased
same,inhibitory effects on focal adhesion molecule activation,[9],observed
same,inhibitory effects on focal adhesion molecule activation,[10],not
same,focal adhesions,[11]; 20 μM TA,lost
same,immunostaining for pY397FAK or pY118paxillin,[11]; FIG. 13,disassembly of focal adhesion molecules was observed
same,association between integrin α5 and pY397FAK,[11]; FIG. 14,dissociation
